In patent US20240150293A1, “SPIROCYCLOHEXANE DERIVATIVES, PHARMACEUTICAL COMPOSITIONS CONTAINING THEM AND THEIR USES AS ANTI-APOPTOTIC INHIBITORS” (LES LABORATOIRES SERVIER, priority 2021, published 2024):

Biological target: Mcl-1 protein (UniProtKB Q07820) (Homo sapiens (Human), UniProt Q07820)
Assay: Inhibition of Mcl-1 by the fluorescence polarisation assay (Example A, Method A)
Assay type: binding
Conditions: fluorescence polarization assay
Experimental: The relative binding potency of each compound was determined via Fluorescence Polarisation (FP). The method utilised a Fluorescein labelled ligand (Fluorescein-βAla-Ahx-A-REIGAQLRRMADDLNAQY-OH; MW 2,765) which binds to the Mcl-1 protein (such that Mcl-1 corresponds to the UniProtKB® primary accession number: Q07820) leading to an increased anisotropy measured in milli-polarisation (mP) units using a reader. The addition of a compound which binds competitively to the same site as the ligand will result in a greater proportion of unbound ligand in the system indicated by a decrease in mP units.
An 11 point serial dilution of each compound was prepared in DMSO and 2 μl transferred into flat bottomed, low binding, 384-well plate (final DMSO concentration 5%). 38 μl of buffer containing the Fluorescein labelled ligand (final concentration 1 nM) and Mcl-1 protein (final concentration 5 nM) was then added. Buffer components were 10 mM 4-(2-hydroxyethyl)-1-piperazineethanesulfonic acid [HEPES], 150 mM NaCl, pH 7.4 with the addition of 0.05% Tween 20.
Assay plates were incubated for 2 hours at room temperature before FP was measured on a […] Synergy Neo reader ([…], Cut off 510 nm) and mP units calculated. The binding of increasing doses of test compound was expressed as a percentage reduction in mP compared to a window established between ‘5% DMSO only’ and ‘100% inhibition’ controls. 11-point dose response curves were plotted with XL-Fit software using a 4-Parameter Logistic Model (Sigmoidal Dose-Response Model) and the inhibitory concentrations that gave a 50% reduction in mP (IC50) were determined. The Ki values were determined from the IC50 values according to Cer et al, Nucleic Acids Res, 2009, 37 (WebServer issue): W441-W445. Inhibition constants (Ki) are determined from complete binding inhibition curves (cKi) or from estimated from incomplete binding inhibition curves (eKi) in most cases due to low activity.

Mcl-1 protein, sequence (Q07820 whole entry): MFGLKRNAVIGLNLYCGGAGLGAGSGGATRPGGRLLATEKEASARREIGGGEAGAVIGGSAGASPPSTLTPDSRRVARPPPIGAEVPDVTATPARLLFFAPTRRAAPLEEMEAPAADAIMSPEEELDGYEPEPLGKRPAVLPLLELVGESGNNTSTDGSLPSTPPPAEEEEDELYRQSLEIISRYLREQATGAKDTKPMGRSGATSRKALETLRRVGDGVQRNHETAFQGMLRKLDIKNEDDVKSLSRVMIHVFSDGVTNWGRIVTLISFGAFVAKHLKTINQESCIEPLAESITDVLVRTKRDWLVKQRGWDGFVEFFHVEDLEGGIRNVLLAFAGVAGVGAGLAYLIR

| Ki | SMILES |
| --- | --- |
| 887 nM | CN1c2ccccc2C2(CCC(Nc3cccc(Br)c3)(C(=O)O)CC2)C1CCc1ccccc1 (single isomer, unassigned) [Example 25, 4-(3-bromoanilino)-1′-methyl-2′-(2-phenylethyl)-1′,2′-dihydrospiro[cyclohexane-1,3′-indole]-4-carboxylic acid] |
| 14800 nM | Cc1ccc(S(=O)(=O)N2Cc3ccccc3C23CCC(Nc2cccc(Cl)c2)(C(=O)O)CC3)cc1 (single isomer, unassigned) [Example 28, 4-(3-chloroanilino)-2′-(4-methylbenzene-1-sulfonyl)-2′,3′-dihydrospiro[cyclohexane-1,1′-isoindole]-4-carboxylic acid] |
| 15800 nM | Cc1ccc(S(=O)(=O)N2Cc3ccccc3C23CCC(Nc2cccc(Cl)c2)(C(=O)O)CC3)cc1 (single isomer, unassigned) [Example 29, 4-(3-chloroanilino)-2′-(4-methylbenzene-1-sulfonyl)-2′,3′-dihydrospiro[cyclohexane-1,1′-isoindole]-4-carboxylic acid] |
| 696 nM | O=C(O)C1(Nc2cccc(Br)c2)CCC2(C=Cc3ccccc32)CC1 (single isomer, unassigned) [Example 58, 4-(3-bromoanilino)spiro[cyclohexane-1,1′-indene]-4-carboxylic acid] |
| 4210 nM | O=C(O)C1(Nc2cccc(Br)c2)CCC2(C=Cc3cccc(Br)c32)CC1 (single isomer, unassigned) [Example 59, 7′-bromo-4-(3-bromoanilino)spiro[cyclohexane-1,1′-indene]-4-carboxylic acid] |
| 984 nM | O=C(O)C1(Nc2cccc(Cl)c2)CCC2(C=Cc3cccnc32)CC1 (single isomer, unassigned) [Example 71, 4-(3-chloroanilino)spiro[cyclohexane-1,7′-cyclopenta[b]pyridine]-4-carboxylic acid] |
| 191000 nM | O=C(O)C1(Nc2cccc(Cl)c2)CCC2(C=Cc3cccnc32)CC1 (single isomer, unassigned) [Example 72, 4-(3-chloroanilino)spiro[cyclohexane-1,7′-cyclopenta[b]pyridine]-4-carboxylic acid] |
| 1430 nM | O=C(O)[C@]1(Nc2cccc(Cl)c2)CC[C@@]2(CC1)c1ccccc1CC2C1CCCC1 (single isomer, unassigned) [Example 91, (1r,4r)-4-(3-chloroanilino)-2′-cyclopentyl-2′,3′-dihydrospiro[cyclohexane-1,1′-indene]-4-carboxylic acid] |
| 7370 nM | O=C(O)[C@]1(Nc2cccc(Cl)c2)CC[C@@]2(CC1)c1ccccc1CC2C1CCCC1 (single isomer, unassigned) [Example 92, (1r,4r)-4-(3-chloroanilino)-2′-cyclopentyl-2′,3′-dihydrospiro[cyclohexane-1,1′-indene]-4-carboxylic acid] |
| 214 nM | O=C(O)[C@]1(Nc2cccc(Cl)c2)CC[C@@]2(CC1)c1ccccc1CC2[C@H]1C[C@@H]1COc1ccnc2ccsc12 (single isomer, unassigned) [Example 103, (1r,4r)-4-(3-chloroanilino)-2′-[(1R*,2S*)-2-{[(thieno[3,2-b]pyridin-7-yl)oxy]methyl}cyclopropyl]-2′,3′-dihydrospiro[cyclohexane-1,1′-indene]-4-carboxylic acid] |
| 1360 nM | O=C(O)[C@]1(Nc2cccc(Cl)c2)CC[C@@]2(CC1)c1ccccc1CC2[C@H]1C[C@@H]1COc1ccnc2ccsc12 (single isomer, unassigned) [Example 104, (1r,4r)-4-(3-chloroanilino)-2′-[(1R*,2S*)-2-{[(thieno[3,2-b]pyridin-7-yl)oxy]methyl}cyclopropyl]-2′,3′-dihydrospiro[cyclohexane-1,1′-indene]-4-carboxylic acid] |
| 3700 nM | O=C(O)[C@]1(Nc2cccc(Cl)c2)CC[C@@]2(CC1)c1ccccc1CC2[C@H]1C[C@@H]1COc1ccnc2ccsc12 (single isomer, unassigned) [Example 105, (1r,4r)-4-(3-chloroanilino)-2′-[(1R*,2S*)-2-{[(thieno[3,2-b]pyridin-7-yl)oxy]methyl}cyclopropyl]-2′,3′-dihydrospiro[cyclohexane-1,1′-indene]-4-carboxylic acid] |
| 2260 nM | O=C(O)[C@]1(Nc2cccc(Cl)c2)CC[C@@]2(CC1)c1ccccc1CC2[C@H]1C[C@@H]1COc1ccnc2ccsc12 (single isomer, unassigned) [Example 106, (1r,4r)-4-(3-chloroanilino)-2′-[(1R*,2S*)-2-{[(thieno[3,2-b]pyridin-7-yl)oxy]methyl}cyclopropyl]-2′,3′-dihydrospiro[cyclohexane-1,1′-indene]-4-carboxylic acid] |
| 1870 nM | O=C(O)[C@]1(Nc2cccc(Cl)c2)CC[C@@]2(CC1)c1ccccc1[C@@H]1C[C@@H]12 (single isomer, unassigned) [Example 107, (1r,1′aR*,4r,6′aS*)-4-(3-chloroanilino)-1′a,6′a-dihydro-1′H-spiro[cyclohexane-1,6′-cyclopropa[a]indene]-4-carboxylic acid] |
| 5730 nM | O=C(O)[C@]1(Nc2cccc(Cl)c2)CC[C@@]2(CC1)c1ccccc1[C@@H]1C[C@@H]12 (single isomer, unassigned) [Example 108, (1r,1′aR*,4r,6′aS*)-4-(3-chloroanilino)-1′a,6′a-dihydro-1′H-spiro[cyclohexane-1,6′-cyclopropa[a]indene]-4-carboxylic acid] |
| 1620 nM | O=C(O)[C@]1(Nc2cccc(Cl)c2)CC[C@@]2(CC1)c1ccccc1CC2[C@H]1C[C@@H]1COc1ccccc1 (single isomer, unassigned) [Example 112, (1r,4r)-4-(3-chloroanilino)-2′-[(1R*,2S*)-2-(phenoxymethyl)cyclopropyl]-2′,3′-dihydrospiro[cyclohexane-1,1′-indene]-4-carboxylic acid] |
| 22300 nM | O=C(O)[C@]1(Nc2cccc(Cl)c2)CC[C@@]2(CC1)c1ccccc1CC2[C@H]1C[C@@H]1COc1cccnc1 (single isomer, unassigned) [Example 113, (1r,4r)-4-(3-chloroanilino)-2′-[(1R*,2S*)-2-{[(pyridin-3-yl)oxy]methyl}cyclopropyl]-2′,3′-dihydrospiro[cyclohexane-1,1′-indene]-4-carboxylic acid] |
| 27300 nM | O=C(O)[C@]1(Nc2cccc(Cl)c2)CC[C@@]2(CC1)c1ccccc1CC2[C@H]1C[C@@H]1COc1cccnc1 (single isomer, unassigned) [Example 114, (1r,4r)-4-(3-chloroanilino)-2′-[(1R*,2S*)-2-{[(pyridin-3-yl)oxy]methyl}cyclopropyl]-2′,3′-dihydrospiro[cyclohexane-1,1′-indene]-4-carboxylic acid] |
| 1140 nM | O=C(O)[C@]1(Nc2cccc(Cl)c2)CC[C@@]2(CC1)c1ccccc1CC2[C@H]1C[C@@H]1COc1cccnc1 (single isomer, unassigned) [Example 115, (1r,4r)-4-(3-chloroanilino)-2′-[(1R*,2S*)-2-{[(pyridin-3-yl)oxy]methyl}cyclopropyl]-2′,3′-dihydrospiro[cyclohexane-1,1′-indene]-4-carboxylic acid] |
| 882 nM | O=C(O)[C@]1(Nc2cccc(Cl)c2)CC[C@@]2(CC1)c1ccccc1CC2[C@H]1C[C@@H]1COc1cccnc1 (single isomer, unassigned) [Example 116, (1r,4r)-4-(3-chloroanilino)-2′-[(1R*,2S*)-2-{[(pyridin-3-yl)oxy]methyl}cyclopropyl]-2′,3′-dihydrospiro[cyclohexane-1,1′-indene]-4-carboxylic acid] |
| 226 nM | O=C(O)C1(Nc2cccc(Br)c2)CCC2(CC1)c1ccccc1CC2CCCc1ccccc1 (single isomer, unassigned) [Example 150, (1r,4r)-4-(3-bromoanilino)-2′-(3-phenylpropyl)-2′,3′-dihydrospiro[cyclohexane-1,1′-indene]-4-carboxylic acid] |
| 1340 nM | O=C(O)C1(Nc2cccc(Br)c2)CCC2(CC1)c1ccccc1CC2CCCc1ccccc1 (single isomer, unassigned) [Example 151, (1r,4r)-4-(3-bromoanilino)-2′-(3-phenylpropyl)-2′,3′-dihydrospiro[cyclohexane-1,1′-indene]-4-carboxylic acid] |
| 31600 nM | C[C@H]1c2ccccc2[C@]2(CC[C@@](Nc3cccc(Cl)c3)(C(=O)O)CC2)[C@H]1C (single isomer, unassigned) [Example 208, (1r,2′R*,3'S*,4r)-4-(3-chloroanilino)-2′,3′-dimethyl-2′,3′-dihydrospiro[cyclohexane-1,1′-indene]-4-carboxylic acid] |
| 89000 nM | O=C(O)[C@]1(Nc2cccc(Br)c2)CC[C@]2(CC1)c1ccccc1CC2c1ccccc1 (single isomer, unassigned) [Example 210, (1s,4s)-4-(3-bromoanilino)-2′-phenyl-2′,3′-dihydrospiro[cyclohexane-1,1′-indene]-4-carboxylic acid] |
